Structures are written as SMILES. Activity calls are given as the source filed them. The rule behind the calls is not given here.

We go through two compounds from ChEMBL document CHEMBL1949542, “Reductive activation of 5-fluorodeoxyuridine prodrug possessing azide methyl group by hypoxic X-irradiation” (Bioorg Med Chem Lett, 2012).

Common to all, as to assay type: functional, cell-based
The subject of assay [1] is A549. As to the kind of experiment: Cytotoxicity against human A549 cells assessed as cell viability after 72 hrs by WST-8 assay. As to conditions: A549, 72 h. A general note: Formazan colour is commonly taken as a measure of viable cells.
Assay [2] concerns A549. As to the kind of experiment: Cytocidal activity against human A549 cells assessed as cell viability at 200 nM compound X-irradiated under hypoxic conditions measured after 72 hrs by WST-8 assay.
Assay [3] deals with A549. The assay can be described thus: Cytotoxicity against human A549 cells assessed as cell viability at 200 nM compound X-irradiated under aerobic conditions measured after 72 hrs by WST-8 assay.
Assay [4] concerns A549. As to the kind of experiment: Cytotoxicity against human A549 cells assessed as cell viability under hypoxic condition at 100 nM after 72 hrs by WST-8 assay.

With `O=c1[nH]c(=O)n([C@H]2C[C@H](O)[C@@H](CO)O2)cc1F` [FLOXURIDINE], the IC50 – broadly, the concentration that gives 50% inhibition – in the assay with A549 [1] worked out at 47 nM.

On to `[N-]=[N+]=NCn1c(=O)c(F)cn([C@H]2C[C@H](O)[C@@H](CO)O2)c1=O`, for which the IC50 with A549 [1] was found to be 1470 nM. The result in the assay with A549 [2], in the assay with A549 [3] and in the assay with A549 [4] was inactive.
